How the values were obtained:
ADAM9, 10 and 17 mRNA = test: RT-PCR of ADAM9, 10 and 17 mRNA in HIV-1BAL infected PBMC; assay type: cell-based, human; settings: day 3 and 6 of infected samples
Procedure: RT-PCR using ADAM9, 10 and 17 primer probes was assayed using TaqMan primer/probe sets from ThermoFisher with a 50 ng cDNA template as described previously ([Chun et al., 2013]; [Kononchik et al., 2018]). The following TaqMan 20X Gene Expression Assay probes (Dye: FAM-MGB) were used: ADAM9 (Hs00177638_m1), ADAM10 (Hs00153853_m1), ADAM17 (Hs01041915_m1). Expression Assay standard probes (Dye: VIC-MGB) for β-Actin (Hs01060665_g1) or RNase P/RPPH1 (4403328) were used as gene expression controls. Briefly, HIV infected or uninfected cells from triplicate experiments were washed 3x in PBS and lysed for RNA isolation using RNeasy mini kit (QIAGEN corp). The corresponding cDNA samples were prepared using either TaqMan microRNA reverse transcription kit or Invitrogen High-Capacity cDNA reverse transcription kit (Thermo Fisher). Samples were run in duplicate across triplicate experiments on an ABI 7300 Real-Time PCR System (Applied Biosystems) with a threshold of 0.2. Relative gene expression was calculated using the 2^-ΔCt method and normalized to β-Actin or RNaseP as the endogenous controls. All statistical analyses were carried out using the software Prism 8 (GraphPad Software, Inc). Western blot analyses were used to detect the mature active form of ADAMs ([Pereira Vatanabe et al., 2021]). […]

HIV = tested on: HIV; parameters: method as in Kononchik et al., 2018; settings: ref Kononchik et al., 2018; cited from earlier work

## CNC(=O)[C@H](Cc1ccccc1)NC(=O)[C@H](CC(C)C)[C@H](CSc1cccs1)C(=O)NO [BB-94, Batimastat]
ADAM9, 10 and 17 mRNA
  HIV-1BAL induced increase of ADAM9, 10, 17 mRNA: increase was not observed
HIV
  effect on HIV cell-to-cell transfer infections: effectively suppressed HIV cell-to-cell transfer infections
